Reference: US12264175B2, “Compositions and methods for capping RNAS” (Verve Therapeutics, Inc., priority 2020, dated 2025)

What was measured:
T7 RNA polymerase [1] = target: T1, T7 RNA polymerase (Escherichia phage T7, UniProt P00573); experiment: One-pot IVT preparation of 5′ capped mRNA (production yield, full-length purity); format: biochemical
Description: The 5′ end initiator, 1007a, (FIG. 1A) was used to prepare capped mRNAs that encode for ABE and luciferase proteins. In this Example and for all others described herein, the ABE mRNA sequence was MA004 (SEQ. 0001) and the luciferase mRNA sequence was the Photinus pyralis (Firefly) luciferase sequence described in NCBI reference sequence XM_031473197.1. These mRNA can be produced by different methods well known in the art. One of such methods used herein was in vitro transcription (IVT) using T7 polymerase; or in other embodiments, additional RNA polymerase variants. This IVT reaction to produce mRNA used a linearized DNA template that comprised a T7 polymerase promoter and associated regulatory sequences, mRNA coding sequence (CDS), 3′ and 5′ untranslated regions (UTRs), poly A tail, and additional sequence elements to facilitate and modulate mRNA stability and in vivo performance. Prior to IVT, the DNA template was in the form of a plasmid; in other embodiments the DNA template is in the form of a PCR product, synthetic DNA product, or any other double-stranded DNA construct. Linearization of the DNA template with a restriction digestion enzyme was performed in order to promote run-off transcription. The typical IVT reaction included T7 polymerase, DNA template, RNase inhibitor, cap analog, inorganic pyrophosphatase, and the naturally occurring ribonucleoside triphosphates (NTPs) such as GTP, ATP, CTP, and N1-methyl pseudouridine triphosphosphate; in some embodiments NTPs include UTP or modified NTPs such as pseudouridine, 5′methyl cytidine, 5-methoxy uridine, N6-methyl adenosine, and N4-acetyl cytidine. The 1007a 5′ end initiator was added to the IVT reaction along with ATP, GTP, CTP, and N1-methyl pseudouridine triphosphate at a 1:1 initiator-to-NTP molar ratio and additional ratios described in Example 5 (B). Poly A tail was encoded in the DNA template that was added to the mRNA during transcription; in some instances, poly A tail is added to the mRNA after the IVT reaction using an RNA ligase enzyme. Finally, T7 RNA polymerase was added to the mixture and the IVT reaction was run at 37° C. for about 1-4 hours. After IVT, DNase was added to the transcription mixture to remove DNA template; in some instances, residual DNA is removed with chromatography. This mRNA was purified to remove residual reaction products and impurities, and stored in 1 mM citrate buffer. Characterization of production yield and mRNA full-length purity was performed by UV spectrometry and capillary gel electrophoresis methods, which are known in the art. […] Similar IVT and purification process are used to produce mRNA encoding SpCas9, Cas12b, CBE, and other ABEs; in all cases the DNA template, reaction conditions, and purification parameters are optimized for the specific gene of interest.
Similarly, ABE encoding mRNA with 5′ end region, 1107a, (FIG. 1B) was produced and characterized as described in the paragraph above.

T7 RNA polymerase [2] = target: T1, T7 RNA polymerase; experiment: mRNA capping efficiency at adjusted 5′ end initiator-to-NTP molar ratio; format: biochemical; conditions: initiator-to-NTP ratio ranging from 1:1 down to 1:1.67; FIG. 4
Description: The amount of capped mRNA produced in an IVT reaction is directly proportional to the ratio of cap to NTPs in the reaction mixture (Stepinski, J. et al., RNA. 2006, 7, 1486-1495). The 5′ end initiator-to-NTP ratio in an IVT reaction impacts the amount of mRNA that becomes capped primarily because cap can compete with NTPs for insertion at the 5′ end of mRNA. A typical initiator-to-NTP ratio for a dinucleotide cap structure is 4:1 and a typical molar initiator-to-NTP ratio for a trinucleotide cap structure is 1:1; where NTP represents either GTP, ATP, CTP, UTP, or modified NTPs such as N1-methyl pseudouridine. At both a 4:1 ratio for a dinucleotide cap and 1:1 ratio for a trinucleotide cap, the resultant mRNA will have a mixture of transcripts of which at least 80% are capped at the 5′ end and up to 20% are uncapped, this is also described as a capping efficiency of 80%. Capping efficiency is the measured amount of capped mRNA divided by the total amount of capped mRNA plus uncapped mRNA. Therefore, trinucleotide caps can be considered more efficient capping compounds than dinucleotide caps since less input cap is required to produce a final mRNA product that contains a similar amount of capped 5′ ends. The ability of trinucleotide caps to produce a high (>90%) capping efficiency at a lower initiator-to-NTP ratio than dinucleotide caps, in some instances, can be attributed to the increased affinity of a trinucleotide cap for the DNA template. In some cases, the optimal cap-to-NTP ratio may vary with the composition of the cap structure, wherein modification of cap structures may affect capping efficiency. […]
The amount of capped mRNA relative to the total amount of mRNA that is present, i.e. capping efficiency, can be measured by numerous methods well known in the art. […]

[3] = system: primary human liver hepatocytes (hPH); experiment: ABE protein levels by ELISA after mRNA transfection of primary human hepatocytes; format: cell-based; conditions: ABE mRNA transfected to hPH cells, FIG. 6
Experimental: Primary human liver hepatocytes (hPH), primary cynomolgus liver hepatocytes (cPH), or primary mouse liver hepatocytes (mPH) are cultured per the manufacturer's protocol. In brief, the cells are thawed and resuspended in hepatocyte thawing medium followed by centrifugation at 100 g for 10 min at 4° C. The supernatant is discarded, and the pelleted cells resuspended in hepatocyte plating medium. Each vial contains ˜5 million cells that are used for plating one 24-well plate. Plated cells are allowed to settle and adhere for 4-6 h in a tissue culture incubator at 37° C. under 5% CO2 atmosphere. After incubation, cells are checked for monolayer formation. The incubating media is then replaced with fresh hepatocyte maintenance media The cells thus are ready for transfection using a transfection agent such as MessengerMAX. Solution A: desired amount of single guide RNA (sgRNA) is mixed with 1:1 wt ratio of mRNA in OptiMEM. Solution B: MessengerMAX in OptiMEM. After mixing solutions A and B, the mixture is incubated at room temperature for 20 minutes, and then the incubated solution is added dropwise to each well of cells. The cells are then allowed to remain at 37° C. for 3 days. […] For example, mRNA with 5′ end region motifs, 1007a and 1107a, were transfected to hPH cells as described above, the cells were lysed, and ABE protein levels were measured by ELISA. […]

T7 RNAP = T7 RNAP (Escherichia phage T7, UniProt P00573); conditions: first initiating NTP / guanosine; J. Mol. Biol. (2007) 370, 256-268; cited from earlier work
T7 RNAP, sequence (P00573 whole entry): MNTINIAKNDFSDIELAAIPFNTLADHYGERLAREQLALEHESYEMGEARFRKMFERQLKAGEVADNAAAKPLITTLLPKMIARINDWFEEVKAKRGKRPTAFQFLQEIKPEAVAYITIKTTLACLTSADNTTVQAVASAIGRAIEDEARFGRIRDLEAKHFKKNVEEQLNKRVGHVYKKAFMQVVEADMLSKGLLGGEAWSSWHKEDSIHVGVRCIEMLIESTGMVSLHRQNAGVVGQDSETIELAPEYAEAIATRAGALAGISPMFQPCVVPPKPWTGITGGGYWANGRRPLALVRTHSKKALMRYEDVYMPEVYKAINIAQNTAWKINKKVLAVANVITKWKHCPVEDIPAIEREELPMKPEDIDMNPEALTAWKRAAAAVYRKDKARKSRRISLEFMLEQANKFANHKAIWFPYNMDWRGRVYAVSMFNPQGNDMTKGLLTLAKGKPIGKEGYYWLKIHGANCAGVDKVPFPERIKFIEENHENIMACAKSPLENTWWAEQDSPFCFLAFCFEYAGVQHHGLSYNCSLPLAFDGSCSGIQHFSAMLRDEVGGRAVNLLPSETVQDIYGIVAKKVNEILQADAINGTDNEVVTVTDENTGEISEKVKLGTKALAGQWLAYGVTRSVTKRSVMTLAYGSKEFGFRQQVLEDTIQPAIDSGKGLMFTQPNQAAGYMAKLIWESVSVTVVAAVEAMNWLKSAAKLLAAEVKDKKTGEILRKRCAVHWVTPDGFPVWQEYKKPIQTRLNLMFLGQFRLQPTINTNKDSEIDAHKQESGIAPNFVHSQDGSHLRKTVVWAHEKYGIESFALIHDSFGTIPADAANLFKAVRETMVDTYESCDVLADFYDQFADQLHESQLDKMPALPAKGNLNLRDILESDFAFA

T1 sequence (P00573 whole entry): as above

Row | Structure (SMILES) | final production yield of mRNA (T7 RNA polymerase [1]; ABE encoding mRNA made with the 5′ end initiator, T7 IVT, FIG. 2) | mRNA full-length purity (T7 RNA polymerase [1]; ABE encoding mRNA made with the 5′ end initiator, capillary gel electrophoresis, FIG. 3) | amount of full-length mRNA produced (T7 RNA polymerase [1]; initiator-to-NTP ratio ranging from 1:1 down to 1:5, FIG. 3) | capping efficiency (T7 RNA polymerase [2]) [%] | ABE protein levels as compared to mRNA with 5′ end region motif 1002a [3] | Kd (T7 RNAP) [µM]
1 | COC1C(OP(=O)(O)OCC2OC(n3cnc4c(=O)[nH]c(N)nc43)C(O)C2O)C(COP(=O)(O)OP(=O)([S-])OP(=O)(O)OCC2OC(n3c[n+](C)c4c(=O)[nH]c(N)nc43)C(O)C2O)OC1n1cnc2c(N)ncnc21 (stereo not drawn) [1107a, m^7G(ppsp)Am(p)G] | about 3.3 mg per 1 ml of IVT reaction | about 86% | did not reduce | > 90 | similar | –
2 | Nc1nc2c(ncn2[C@@H]2O[C@H](COP(=O)(O)OP(=O)(O)OP(=O)(O)O)[C@@H](O)[C@H]2O)c(=O)[nH]1 [GTP] | – | – | – | – | – | 2000
